Consider 14 compounds from patent US11091478B2 (Fochon Pharmaceuticals, Ltd., priority 2017, dated 2021).

pIC50: −log10 of the molar value.

One experiment has as its system DOHH2 cells. Kind of experiment: Cell proliferation assay (MTS), DOHH2 cells, 120 h. As to conditions: Homo sapiens, DOHH-2, 120 h. It is filed as cell-based. In short, it runs like this: (§1)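 Proliferation was scored by MTS (2 h, then SDS stop, A490 with 650 nm reference) and IC50 derived. Compound ran at nine final concentrations from 1.5 to 10000 nM. DOHH2 were incubated 120 h and RS4;11 72 h, both plated at 5000 cells/well in RPMI-1640 plus 10% FBS.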

A further experiment has as its system RS4;11 cells. In words: Cell proliferation assay (MTS), RS4;11 cells, 72 h. It is filed as cell-based. As to conditions: Homo sapiens, RS4-11, 72 h. In short, it runs like this: as §1

Regarding `CN1CCC(C[C@@H]2COc3cc(S(=O)(=O)NC(=O)c4ccc(N5CCN(CC6=C(c7ccc(Cl)cc7)CC(C)(C)CC6)CC5)cc4Oc4cnc5[nH]ccc5c4)cc([N+](=O)[O-])c3N2)CC1` [Example 2-201, (R)-2-((1H-pyrrolo[2,3-b]pyridin-5-yl)oxy)-4-(4-((4′-chloro-5,5-dimethyl-3,4,5,6-tetra-hydro-[1,1′-biphenyl]-2-yl)methyl)piperazin-1-yl)-N-((3-((1-methylpiperidin-4-yl)meth-yl)-5-nitro-3,4-dihydro-2H-benzo[b][1,4]ox-azin-7-yl)sulfonyl)benzamide], the pIC50 in the experiment on DOHH2 cells is 6.84; in the experiment with RS4;11 cells it was 7.66.

Turning to `COC(=O)N1CCC(C[C@@H]2COc3cc(S(=O)(=O)NC(=O)c4ccc(N5CCN(CC6=C(c7ccc(Cl)cc7)CC(C)(C)CC6)CC5)cc4Oc4cnc5[nH]ccc5c4)cc([N+](=O)[O-])c3N2)CC1` [Example 2-202, methyl (R)-4-((7-(N-(2-((1H-pyrrolo[2,3-b]pyridin-5-yl)oxy)-4-(4-((4′-chloro-5,5-dimethyl-3,4,5,6-tetrahydro-[1,1′-biphenyl]-2-yl)methyl)piperazin-1-yl)benzoyl)sulfamoyl)-5-nitro-3,4-dihydro-2H-benzo[b][1,4]oxazin-3-yl)methyl)piperidine-1-carboxylate], the results for the negative-log IC50 (pIC50) in the experiment with DOHH2 cells and in the experiment on RS4;11 cells were 7.20 and 7.44, respectively.

For `CC(=O)N1CCC(C[C@@H]2COc3cc(S(=O)(=O)NC(=O)c4ccc(N5CCN(CC6=C(c7ccc(Cl)cc7)CC(C)(C)CC6)CC5)cc4Oc4cnc5[nH]ccc5c4)cc([N+](=O)[O-])c3N2)CC1` [Example 2-203, (R)-2-((1H-pyrrolo[2,3-b]pyridin-5-yl)oxy)-N-((3-((1-acetylpiperidin-4-yl)methyl)-5-nitro-3,4-dihydro-2H-benzo[b][1,4]oxazin-7-yl)sulfonyl)-4-(4-((4′-chloro-5,5-dimethyl-3,4,5,6-tetrahydro-[1,1′-biphenyl]-2-yl)meth-yl)piperazin-1-yl)benzamide], the values for the pIC50 with DOHH2 cells and with RS4;11 cells were 7.02 and 7.70, respectively.

In the case of `CC1(C)CCC(CN2CCN(c3ccc(C(=O)NS(=O)(=O)c4cc5c(c([N+](=O)[O-])c4)N[C@H](CC4CCN(S(C)(=O)=O)CC4)CO5)c(Oc4cnc5[nH]ccc5c4)c3)CC2)=C(c2ccc(Cl)cc2)C1` [Example 2-204, (R)-2-((1H-pyrrolo[2,3-b]pyridin-5-yl)oxy)-4-(4-((4′-chloro-5,5-dimethyl-3,4,5,6-tetra-hydro-[1,1′-biphenyl]-2-yl)methyl)piperazin-1-yl)-N-((3-((1-(methylsulfonyl)piperidin-4-yl)methyl)-5-nitro-3,4-dihydro-2H-benzo [b][1,4]oxazin-7-yl)sulfonyl)benzamide], the negative-log IC50 (pIC50) with DOHH2 cells was 7.77; with RS4;11 cells it was 7.59.

Turning to `CC1(C)CCC(CN2CCN(c3ccc(C(=O)NS(=O)(=O)c4cc5c(c([N+](=O)[O-])c4)N[C@@H](c4ccc(C#N)cc4)CO5)c(Oc4cnc5[nH]ccc5c4)c3)CC2)=C(c2ccc(Cl)cc2)C1` [Example 2-206, (S)-2-((1H-pyrrolo[2,3-b]pyridin-5-yl)oxy)-4-(4-((4′-chloro-5,5-dimethyl-3,4,5,6-tetra-hydro-[1,1′-biphenyl]-2-yl)methyl)piperazin-1-yl)-N-((3-(4-cyanophenyl)-5-nitro-3,4-dihdyro-2H-benzo[b][1,4]oxazin-7-yl)sulfo-nyl)benzamide], the negative logarithm of the IC50 (pIC50) was 6.51 in the experiment on DOHH2 cells and 7.68 in the experiment with RS4;11 cells.

`CC1(C)CCC(CN2CCN(c3ccc(C(=O)NS(=O)(=O)c4cc5c(c([N+](=O)[O-])c4)N[C@@H](Cc4ccccc4C#N)CO5)c(Oc4cnc5[nH]ccc5c4)c3)CC2)=C(c2ccc(Cl)cc2)C1` [Example 2-208, (S)-2-((1H-pyrrolo[2,3-b]pyridin-5-yl)oxy)-4-(4-((4′-chloro-5,5-dimethyl-3,4,5,6-tetra-hydro-[1,1′-biphenyl]-2-yl)methyl)piperazin-1-yl)-N-((3-(2-cyanobenzyl)-5-nitro-3,4-dihydro-2H-benzo[b][1,4]oxazin-7-yl)sulfo-nyl)benzamide]: the pIC50 in the experiment with DOHH2 cells is 6.96; in the experiment on RS4;11 cells, 7.77.

As to `CC1(C)CCC(c2ccc(Cl)cc2)=C(CN2CCN(c3ccc(C(=O)NS(=O)(=O)c4cc5c(c([N+](=O)[O-])c4)N[C@H](CN4C[C@@H]6C[C@H]4CO6)CO5)c(Oc4cnc5[nH]ccc5c4)c3)CC2)C1` [Example 2-209, 2-((1H-pyrrolo[2,3-b]pyridin-5-yl)oxy)-N-(((R)-3-(((1S,4S)-2-oxa-5-azabicyclo[2.2.1]heptan-5-yl)methyl)-5-nitro-3,4-dihydro-2H-benzo[b][1,4]oxazin-7-yl)sulfonyl)-4-(4-((4′-chloro-4,4-dimethyl-3,4,5,6-tetrahydro-[1,1′-biphenyl]-2-yl)methyl)piperazin-1-yl) benzamide], the pIC50 with DOHH2 cells is 7.46; in the experiment on RS4;11 cells it was 9.00.

Turning to `C[C@@H]1CN(C[C@@H]2COc3cc(S(=O)(=O)NC(=O)c4ccc(N5CCN(CC6=C(c7ccc(Cl)cc7)CCC(C)(C)C6)CC5)cc4Oc4cnc5[nH]ccc5c4)cc([N+](=O)[O-])c3N2)CCN1C1COC1` [Example 2-210, 2-((1H-pyrrolo[2,3-b]pyridin-5-yl)oxy)-4-(4-((4′-chloro-4,4-dimethyl-3,4,5,6-tetrahydro-[1,1′-biphenyl]-2-yl)methyl)piperazin-1-yl)-N-(((R)-3-(((R)-3-methyl-4-(oxetan-3-yl)piperazin-1-yl)methyl)-5-nitro-3,4-dihydro-2H-benzo[b][1,4]oxazin-7-yl)sulfonyl) benzamide], the pIC50 in the experiment on DOHH2 cells is 7.46; in the experiment with RS4;11 cells it was 8.15.

`CC1(C)CCC(c2ccc(Cl)cc2)=C(CN2CCN(c3ccc(C(=O)NS(=O)(=O)c4cc5c(c([N+](=O)[O-])c4)N[C@@H](Cc4ccccn4)CO5)c(Oc4cnc5[nH]ccc5c4)c3)CC2)C1` [Example 2-211, (S)-2-((1H-pyrrolo[2,3-b]pyridin-5-yl)oxy)-4-(4-((4′-chloro-4,4-dimethyl-3,4,5,6-tetra-hydro-[1,1′-biphenyl]-2-yl)methyl)piperazin-1-yl)-N-((5-nitro-3-(pyridin-2-ylmethyl)-3,4-dihydro-2H-benzo[b][1,4]oxazin-7-yl)sulfonyl)benzamide]: the results for the negative logarithm of the IC50 (pIC50) in the experiment with DOHH2 cells and in the experiment with RS4;11 cells were 7.04 and 7.46, respectively.

Turning to `CC1(C)CCC(c2ccc(Cl)cc2)=C(CN2CCN(c3ccc(C(=O)NS(=O)(=O)c4cc5c(c([N+](=O)[O-])c4)N[C@@H](C4CCOCC4)CO5)c(Oc4cnc5[nH]ccc5c4)c3)CC2)C1` [Example 2-212, (S)-2-((1H-pyrrolo[2,3-b]pyridin-5-yl)oxy)-4-(4-((4′-chloro-4,4-dimethyl-3,4,5,6-tetra-hydro-[1,1′-biphenyl]-2-yl)methyl)piperazin-1-yl)-N-((5-nitro-3-(tetrahydro-2H-pyran-4-yl)-3,4-dihydro-2H-benzo[b][1,4]oxazin-7-yl)sulfonyl)benzamide], the results for the pIC50 in the experiment with DOHH2 cells and with RS4;11 cells were 7.57 and 8.10, respectively.

On to `CC1(C)CCC(c2ccc(Cl)cc2)=C(CN2CCN(c3ccc(C(=O)NS(=O)(=O)c4cc5c(c([N+](=O)[O-])c4)N[C@H](C4CCOCC4)CO5)c(Oc4cnc5[nH]ccc5c4)c3)CC2)C1` [Example 2-213, (R)-2-((1H-pyrrolo[2,3-b]pyridin-5-yl)oxy)-4-(4-((4′-chloro-4,4-dimethyl-3,4,5,6-tetra-hydro-[1,1′-biphenyl]-2-yl)methyl)piperazin-1-yl)-N-((5-nitro-3-(tetrahydro-2H-pyran-4-yl)-3,4-dihydro-2H-benzo[b][1,4]oxazin-7-yl)sulfonyl)benzamide], for which the pIC50 in the experiment with DOHH2 cells is 7.39; with RS4;11 cells, 8.10.

As for `CC1(C)CCC(CN2CCN(c3ccc(C(=O)NS(=O)(=O)c4cc5c(c([N+](=O)[O-])c4)N[C@H](CC4CCNCC4)CO5)c(Oc4cnc5[nH]ccc5c4)c3)CC2)=C(c2ccc(Cl)cc2)C1` [Example 2-214, (R)-2-((1H-pyrrolo[2,3-b]pyridin-5-yl)oxy)-4-(4-((4′-chloro-5,5-dimethyl-3,4,5,6-tetra-hydro-[1,1′-biphenyl]-2-yl)methyl)piperazin-1-yl)-N-((5-nitro-3-(piperidin-4-ylmethyl)-3,4-dihydro-2H-benzo[b][1,4]oxazin-7-yl)sulfonyl)benzamide], the pIC50 in the experiment with DOHH2 cells was 6.33; in the experiment on RS4;11 cells, 7.80.

As to `CC1(C)CCC(CN2CCN(c3ccc(C(=O)NS(=O)(=O)c4cc5c(c([N+](=O)[O-])c4)N[C@@H](C4CCC(C)(O)CC4)CO5)c(Oc4cnc5[nH]ccc5c4)c3)CC2)=C(c2ccc(Cl)cc2)C1` (stereo partly drawn) [Example 2-215, (S)-2-((1H-pyrrolo[2,3-b]pyridin-5-yl)oxy)-4-(4-((4′-chloro-5,5-dimethyl-3,4,5,6-tetra-hydro-[1,1′-biphenyl]-2-yl)methyl)piperazin-1-yl)-N-((3-(4-hydroxy-4-methylcyclohex-yl)-5-nitro-3,4-dihydro-2H-benzo[b][1,4]oxazin-7-yl)sulfonyl)benzamide], the pIC50 is 7.19 in the experiment on DOHH2 cells and 8.52 in the experiment on RS4;11 cells.

For the compound `CC1(C)CCC(CN2CCN(c3ccc(C(=O)NS(=O)(=O)c4cc5c(c([N+](=O)[O-])c4)N[C@@H](CC4CCC(C)(O)CC4)CO5)c(Oc4cnc5[nH]ccc5c4)c3)CC2)=C(c2ccc(Cl)cc2)C1` (stereo partly drawn) [Example 2-216, (S)-2-((1H-pyrrolo[2,3-b]pyridin-5-yl)oxy)-4-(4-((4′-chloro-5,5-dimethyl-3,4,5,6-tetra-hydro-[1,1′-biphenyl]-2-yl)methyl)piperazin-1-yl)-N-((3-((4-hydroxy-4-methylcyclohex-yl)methyl)-5-nitro-3,4-dihydro-2H-benzo [b][1,4]oxazin-7-yl)sulfonyl)benzamide], the negative logarithm of the IC50 (pIC50) was 6.57 with DOHH2 cells and 7.89 with RS4;11 cells.
